In patent publication US20230130766A1 (SALK INSTITUTE FOR BIOLOGICAL STUDIES, priority 2020, published 2023) one finds IC50 data, which are given here for 66 compounds.

pIC50: −log10 of the molar value.

The target of the test is T1, ULK1 (Homo sapiens, UniProt O75385).
T1 sequence (O75385 1-1050): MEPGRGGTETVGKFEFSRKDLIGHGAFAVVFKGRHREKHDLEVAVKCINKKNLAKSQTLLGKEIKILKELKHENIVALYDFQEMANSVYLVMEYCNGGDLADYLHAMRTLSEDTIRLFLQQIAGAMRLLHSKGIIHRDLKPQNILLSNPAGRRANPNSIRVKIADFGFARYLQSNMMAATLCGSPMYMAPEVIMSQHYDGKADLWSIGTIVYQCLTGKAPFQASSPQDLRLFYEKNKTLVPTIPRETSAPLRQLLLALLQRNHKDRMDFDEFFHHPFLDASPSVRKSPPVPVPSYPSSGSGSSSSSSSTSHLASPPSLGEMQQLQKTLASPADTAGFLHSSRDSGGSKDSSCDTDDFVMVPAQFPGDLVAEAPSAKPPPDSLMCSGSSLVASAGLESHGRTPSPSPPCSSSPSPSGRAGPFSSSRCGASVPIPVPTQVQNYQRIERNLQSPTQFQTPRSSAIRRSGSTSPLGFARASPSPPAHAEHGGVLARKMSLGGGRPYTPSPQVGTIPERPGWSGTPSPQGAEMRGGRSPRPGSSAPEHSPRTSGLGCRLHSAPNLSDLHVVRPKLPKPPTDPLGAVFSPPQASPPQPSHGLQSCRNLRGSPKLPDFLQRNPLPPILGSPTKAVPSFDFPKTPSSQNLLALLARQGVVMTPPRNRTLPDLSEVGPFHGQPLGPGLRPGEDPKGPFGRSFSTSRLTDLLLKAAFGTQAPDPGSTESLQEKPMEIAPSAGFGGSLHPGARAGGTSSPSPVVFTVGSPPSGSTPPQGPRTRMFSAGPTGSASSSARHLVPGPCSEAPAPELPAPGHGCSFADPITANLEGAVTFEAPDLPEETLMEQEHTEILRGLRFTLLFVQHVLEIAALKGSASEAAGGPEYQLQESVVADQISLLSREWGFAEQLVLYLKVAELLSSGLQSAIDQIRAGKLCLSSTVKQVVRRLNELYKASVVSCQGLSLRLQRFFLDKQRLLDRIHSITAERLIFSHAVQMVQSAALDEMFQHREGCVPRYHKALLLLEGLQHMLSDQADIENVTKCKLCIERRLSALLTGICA
Nature of the test: ULK1 inhibition assay. It counts as biochemical. The settings on record: * = tested as a mixture of regioisomers.
As a reminder, the pIC50 is −log10 of the IC50, conventionally taken in molar units. As to `CNC(=O)c1ccccc1COc1nc(Nc2cc(OC)c(OC)c(OC)c2)ncc1Br` [Compound 338], the pIC50 is below 5.70.

With `FC(F)(F)c1cnc(NC2Cc3ccccc3C2)nc1Nc1ccc2c(c1)OCO2` [Compound 163a], the negative logarithm of the IC50 (pIC50) was below 5.70.

As for `O=C1CCc2cc(Nc3ncc(C(F)(F)F)c(Nc4ccccc4N4CCOCC4)n3)ccc2N1` [Compound 118a], the pIC50 is above 6.70.

Turning to `COC(=O)[C@@H]1CCCN1c1nc(Nc2ccc3c(c2)CCC(=O)N3)ncc1C(F)(F)F` [Compound 227], the pIC50 was 5.70 to 6.70.

Take `CNC(=O)c1ccccc1Nc1nc(Nc2ccc3c(c2)CCC(=O)N3)ncc1-c1ccccc1` [Compound 89]: the pIC50 was above 6.70.

Consider `Nc1ccccc1Oc1nc(Nc2ccc3c(c2)OCO3)ncc1Br` [Compound 321b], for which the pIC50 was above 6.70.

For the compound `COc1ccc(Nc2nc(Nc3ccc4c(c3)CCC(=O)N4)ncc2Br)cn1` [Compound 156], the pIC50 is above 6.70.

Consider `CNC(=O)CCOc1nc(Nc2cc(OC)c(OC)c(OC)c2)ncc1Br` [Compound 316], for which the negative-log IC50 (pIC50) was above 6.70.

Consider `O=C1CCc2cc(Nc3ncc(C(F)(F)F)c(NC4CN(c5nc(Nc6ccc7c(c6)CCC(=O)N7)ncc5C(F)(F)F)C4)n3)ccc2N1` [Compound 198b], for which the pIC50 was below 5.70.

For `FC(F)(F)c1cnc(Nc2cnc3[nH]ccc3c2)nc1NC1COC1` [Compound 194], the pIC50 is above 6.70.

`O=C1CCc2cc(Nc3nc(NC4Cc5ccccc5C4)ncc3C(F)(F)F)ccc2N1` [Compound 130b]: the pIC50 was below 5.70.

For `COc1ccc(Nc2nc(Nc3ccc(N4CCOCC4)cc3OC)ncc2Cl)cn1` [Compound 27], the pIC50 is below 5.70.

Consider `COc1cc(Nc2ncc(Br)c(Oc3cccc4c3CCCC4)n2)cc(OC)c1OC` [Compound 330a], for which the pIC50 is below 5.70.

Turning to `O=C1CCc2cc(Nc3ncc(C(F)(F)F)c(Nc4ccc5c(c4)CCC5)n3)ccc2N1` [Compound 129], the negative logarithm of the IC50 (pIC50) is above 6.70.

Consider `CC(CCl)Nc1nc(Nc2ccc3c(c2)CCC(=O)N3)ncc1C(F)(F)F` (stereo not drawn) [Compound 183c], for which the pIC50 is below 5.70.

On to `CNC(=O)c1ccccc1Oc1nc(Nc2cc(Br)ccc2C)ncc1Br` [Compound 112], for which the pIC50 was below 5.70.

For `Oc1ncc(C(F)(F)F)c(Nc2ccccc2N2CCOCC2)n1` [Compound 118c], the pIC50 is below 5.70.

For the compound `CSc1ccccc1Nc1ncc(C(F)(F)F)c(Nc2ccccc2SC)n1` [Compound 116b], the pIC50 was below 5.70.

For the compound `FC(F)(F)c1cnc(Nc2ccc3[nH]ccc3c2)nc1NC1CC1` [Compound 206], the pIC50 was above 6.70.

Take `COc1cc(Nc2ncc(Br)c(Oc3cccc4[nH]nnc34)n2)cc(OC)c1OC` [Compound 352]: the negative logarithm of the IC50 (pIC50) is below 5.70.

Take `COc1ccc(C)c(Nc2ncc(C(F)(F)F)c(NCc3cccc(S(C)(=O)=O)c3)n2)c1` [Compound 50]: the pIC50 is below 5.70.

With `CNC(=O)c1ccccc1Nc1nc(Nc2ccc3c(c2)CCC(=O)N3)ncc1Br` [Compound 20], the pIC50 was above 6.70.

With `COc1ccc(Nc2nc(Nc3ccc4[nH]ccc4c3)ncc2Br)cn1` [Compound 30], the pIC50 is above 6.70.

`CNC(=O)c1ccccc1Nc1nc(Nc2cc(OC)c(OC)c(OC)c2)ncc1Cl` [Compound 15]: the pIC50 is above 6.70.

For the compound `FC(F)(F)c1cnc(Nc2ccc3nn[nH]c3c2)nc1NC1CC1` [Compound 188], the pIC50 is above 6.70.

As for `O=C1CCc2cc(Nc3nc(Nc4ccccc4N4CCOCC4)ncc3C(F)(F)F)ccc2N1` [Compound 118b], the pIC50 is below 5.70.

For the compound `FC(F)(F)c1cnc(Nc2cnc3[nH]ccc3c2)nc1Nc1ccccc1` [Compound 181a], the pIC50 was above 6.70.

In the case of `O=C1CCc2cc(Nc3ncc(C(=O)O)c(NC4CC4)n3)ccc2N1` [Compound 286], the negative-log IC50 (pIC50) is below 5.70.

Take `CNC(=O)c1ccccc1Oc1nc(Nc2cc(C)ccc2C)ncc1C(F)(F)F` [Compound 104]: the pIC50 is below 5.70.

Regarding `COc1cc(Nc2ncc(Br)c(Oc3ccccc3[S+](C)[O-])n2)cc(OC)c1OC` (stereo not drawn) [Compound 356], the pIC50 is below 5.70.

On to `FC(F)(F)c1cnc(NCC2CC2)nc1Nc1ccc2c(c1)OCO2` [Compound 167a], for which the pIC50 is above 6.70.

As for `COc1ccc(Nc2nc(Nc3cc(OC)c(OC)c(OC)c3)ncc2Cl)cn1` [Compound 24], the pIC50 was above 6.70.

Regarding `Oc1nc(Nc2ccc(Cl)c(Cl)c2)ncc1C(F)(F)F` [Compound 108b], the negative-log IC50 (pIC50) is below 5.70.

Consider `FC(F)(F)c1cnc(N2CCC2)nc1Nc1ccc2c(c1)OCO2` [Compound 166a], for which the negative logarithm of the IC50 (pIC50) is below 5.70.

On to `O=[N+]([O-])c1cnc(NC2CC2)nc1NC1CC1` [Compound 291b], for which the pIC50 is below 5.70.

Take `O=C1CCc2cc(Nc3ncc(C(F)(F)F)c(Nc4ccc5c(c4)OC(F)(F)O5)n3)ccc2N1` [Compound 178a]: the negative-log IC50 (pIC50) is above 6.70.

On to `COc1cc(Nc2ncc(Cl)c(Nc3ccccc3CO)n2)cc(OC)c1OC` [Compound 348], for which the pIC50 is below 5.70.

With `COc1cc(Nc2ncc(Br)c(Oc3ccccc3C(=O)N3CCCC3)n2)cc(OC)c1OC` [Compound 277], the pIC50 was above 6.70.

With `O=C1CCc2cc(Nc3nccc(NC4CC4)n3)ccc2N1` [Compound 200], the pIC50 was below 5.70.

For the compound `Clc1cnc(Nc2ccccc2)nc1Nc1ccccc1` [Compound 114], the pIC50 is below 5.70.

Consider `O=C1CCc2cc(Nc3ncc(C(F)(F)F)c(C#Cc4ccccc4)n3)ccc2N1` [Compound 64], for which the pIC50 was below 5.70.

For the compound `COC(=O)CNc1nc(Nc2ccc3c(c2)CCC(=O)N3)ncc1C(F)(F)F` [Compound 218], the pIC50 is below 5.70.

Take `COc1cc(Nc2nc(Oc3cccc4cc[nH]c34)ncc2Br)cc(OC)c1OC` [Compound 329b]: the pIC50 is below 5.70.

Regarding `COc1cccc(Nc2nc(Nc3ccc4c(c3)CCC(=O)N4)ncc2Br)c1` [Compound 142], the negative logarithm of the IC50 (pIC50) is above 6.70.

On to `Fc1c(Nc2ncc(C(F)(F)F)c(Nc3ccc4c(c3)OCO4)n2)cccc1C(F)(F)F` [Compound 141a], for which the pIC50 was below 5.70.

With `O=C1NC(=O)c2cc(Nc3ncc(C(F)(F)F)c(NC4CC4)n3)ccc21` [Compound 314], the pIC50 is above 6.70.

With `COc1ccc(Nc2nc(Nc3cc(OC)c(OC)c(OC)c3)ncc2Br)cn1` [Compound 25], the pIC50 is above 6.70.

For `O=c1[nH]c2ncc(Nc3nc(Nc4ccc5c(c4)OCCO5)ncc3Br)cc2o1` [Compound 192], the pIC50 is above 6.70.

Take `COc1cc(Nc2ncc(Br)c(Oc3ccccc3CNC(C)=O)n2)cc(OC)c1OC` [Compound 328]: the pIC50 is below 5.70.

Consider `O=C1CCc2cc(Nc3ncc(C(F)(F)F)c(OC4COC4)n3)ccc2N1` [Compound 231a], for which the pIC50 was above 6.70.

In the case of `O=C1CCc2cc(Nc3ncc(Cl)c(Nc4ccc5c(c4)CCC(=O)N5)n3)ccc2N1` [Compound 134], the pIC50 is above 6.70.

Turning to `COc1cccc(Nc2ncc(Cl)c(Nc3cccc(OC)c3)n2)c1` [Compound 143b], the pIC50 is above 6.70.

Turning to `COc1cc(Nc2ncc(Br)c(Oc3ccccc3NC(=O)C(C)(C)C)n2)cc(OC)c1OC` [Compound 320], the pIC50 was below 5.70.

Turning to `O=C1CCc2cc(Nc3ncc(C(F)(F)F)c(/C=C/c4ccccc4)n3)ccc2N1` [Compound 69], the pIC50 is above 6.70.

`O=C1CCc2cc(Nc3nc(Oc4ccccc4)ncc3C(F)(F)F)ccc2N1` [Compound 300b]: the negative-log IC50 (pIC50) is below 5.70.

As for `COc1ccc(Nc2ncc(C(F)(F)F)c(Nc3ccc4c(c3)OCO4)n2)cc1` [144*], the pIC50 is above 6.70.

As to `Nc1nc(N(C(=O)C2CC2)c2ccc3c(c2)CCC(=O)N3)ncc1C(F)(F)F` [Compound 358], the pIC50 is below 5.70.

`COc1cc(Nc2ncc(Br)c(Oc3ccccc3NS(C)(=O)=O)n2)cc(OC)c1OC` [Compound 345]: the pIC50 was below 5.70.

For `CNC(=O)c1cccc(OC)c1Oc1nc(Nc2cc(OC)c(OC)c(OC)c2)ncc1Br` [Compound 252], the pIC50 is above 6.70.

Turning to `O=C1CCc2cc(Nc3ncc(C(F)(F)F)c(Nc4ccc5c(c4)OCO5)n3)ccc2N1` [124*], the pIC50 is above 6.70.

Turning to `CNC(=O)c1ccccc1Oc1nc(Nc2ccccc2SC)ncc1C(F)(F)F` [Compound 116a], the negative-log IC50 (pIC50) is below 5.70.

For the compound `c1cc(NC2CC2)nc(Nc2ccc3c(c2)OCCO3)n1` [Compound 224], the negative-log IC50 (pIC50) is below 5.70.

For the compound `FC(F)(F)c1cnc(Nc2cccnc2)nc1NC1CC1` [Compound 196], the pIC50 is below 5.70.

In the case of `FC(F)(F)c1cnc(Nc2ccc3c(c2)OCO3)nc1NC1Cc2ccccc2C1` [Compound 163b], the negative logarithm of the IC50 (pIC50) is below 5.70.

As to `CNC(=O)c1ccccc1Nc1nc(Nc2ccc3c(c2)CC(=O)N3)ncc1Cl` [Compound 21], the pIC50 is above 6.70.

`FC(F)(F)c1cnc(Nc2ccc3c(c2)OCCCO3)nc1NC1CC1` [Compound 190]: the pIC50 is above 6.70.
